In one series the target is PI3Kδ (Homo sapiens, UniProt O00329). The series can be described thus: PI3K binding assay (lipid kinase reaction, ADP-Glo), PI3K delta. It is filed as biochemical. The method, then: (§1) Reactions are carried out using the following conditions for each PI3K isoform as in Table 5.
(§2) All reactions are carried out at room temperature. […] The reaction is started by the addition of 2 μL ATP/MgCl2. The kinase reaction buffer contains 50 mM HEPES, 50 mM NaCl 3 mM MgCl2, 0.01% BSA, 1% DMSO, and enzyme and substrate concentrations as indicated in the above table. The reaction is stopped by the addition of 10 μL ADP-Glo reagent. Plates are read in a Perkin Elmer Envision system using luminescence mode. 10 point dose response curves are generated for each test compound. Ki values for each compound are determined using the Morrison Equation.

The test system of series [1] is KPL4 breast cancer cell line (PI3Kα mutant H1047R) tumors. To be noted: KPL4 xenograft in SCID mice, daily PO (oral) dosing. The method, then:
(70-72° F.) and 40-60% humidity.
Tumor weight may be estimated with the assumption that 1 mg is equivalent to 1 mm^3 of tumor volume.

The target in a further series is PI3Kα (Homo sapiens, UniProt P42336). Kind of series: PI3K binding assay (lipid kinase reaction, ADP-Glo), PI3K alpha. Format: biochemical. The settings on record: for Ki: first value of cell (ADP-Glo, Example 901), read-out: PI3Kα Ki. The method, then: as §1, §2
Sequence of PI3Kα (P42336 whole entry): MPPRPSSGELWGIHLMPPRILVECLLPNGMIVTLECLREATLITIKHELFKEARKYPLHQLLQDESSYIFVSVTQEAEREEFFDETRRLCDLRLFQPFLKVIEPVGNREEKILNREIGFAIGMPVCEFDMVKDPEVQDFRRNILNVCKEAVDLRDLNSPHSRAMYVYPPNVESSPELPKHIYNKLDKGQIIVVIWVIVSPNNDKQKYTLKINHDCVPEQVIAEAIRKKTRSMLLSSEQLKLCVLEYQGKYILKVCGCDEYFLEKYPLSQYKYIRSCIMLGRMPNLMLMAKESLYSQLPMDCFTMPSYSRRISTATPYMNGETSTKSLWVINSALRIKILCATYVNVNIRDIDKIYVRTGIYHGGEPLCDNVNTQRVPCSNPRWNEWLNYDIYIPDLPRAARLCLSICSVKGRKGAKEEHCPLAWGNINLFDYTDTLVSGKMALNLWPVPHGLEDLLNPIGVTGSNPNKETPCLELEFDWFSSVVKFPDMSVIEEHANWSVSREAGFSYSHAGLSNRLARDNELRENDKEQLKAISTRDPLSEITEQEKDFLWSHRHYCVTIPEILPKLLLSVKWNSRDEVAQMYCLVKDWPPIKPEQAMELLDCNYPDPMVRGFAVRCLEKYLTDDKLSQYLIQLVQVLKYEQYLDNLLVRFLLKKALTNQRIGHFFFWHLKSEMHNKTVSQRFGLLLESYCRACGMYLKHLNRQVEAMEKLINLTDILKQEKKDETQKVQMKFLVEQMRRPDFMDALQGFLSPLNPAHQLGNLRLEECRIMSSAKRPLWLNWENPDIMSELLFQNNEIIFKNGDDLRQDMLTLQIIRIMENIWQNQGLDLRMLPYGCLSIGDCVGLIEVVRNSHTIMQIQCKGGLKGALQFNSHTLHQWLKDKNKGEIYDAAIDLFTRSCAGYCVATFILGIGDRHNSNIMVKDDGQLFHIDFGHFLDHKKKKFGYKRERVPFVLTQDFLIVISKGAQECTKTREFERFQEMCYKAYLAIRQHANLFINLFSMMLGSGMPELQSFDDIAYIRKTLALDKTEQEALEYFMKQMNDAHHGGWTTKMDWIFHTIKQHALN
Sequence of PI3Kα (P27986 whole entry partner): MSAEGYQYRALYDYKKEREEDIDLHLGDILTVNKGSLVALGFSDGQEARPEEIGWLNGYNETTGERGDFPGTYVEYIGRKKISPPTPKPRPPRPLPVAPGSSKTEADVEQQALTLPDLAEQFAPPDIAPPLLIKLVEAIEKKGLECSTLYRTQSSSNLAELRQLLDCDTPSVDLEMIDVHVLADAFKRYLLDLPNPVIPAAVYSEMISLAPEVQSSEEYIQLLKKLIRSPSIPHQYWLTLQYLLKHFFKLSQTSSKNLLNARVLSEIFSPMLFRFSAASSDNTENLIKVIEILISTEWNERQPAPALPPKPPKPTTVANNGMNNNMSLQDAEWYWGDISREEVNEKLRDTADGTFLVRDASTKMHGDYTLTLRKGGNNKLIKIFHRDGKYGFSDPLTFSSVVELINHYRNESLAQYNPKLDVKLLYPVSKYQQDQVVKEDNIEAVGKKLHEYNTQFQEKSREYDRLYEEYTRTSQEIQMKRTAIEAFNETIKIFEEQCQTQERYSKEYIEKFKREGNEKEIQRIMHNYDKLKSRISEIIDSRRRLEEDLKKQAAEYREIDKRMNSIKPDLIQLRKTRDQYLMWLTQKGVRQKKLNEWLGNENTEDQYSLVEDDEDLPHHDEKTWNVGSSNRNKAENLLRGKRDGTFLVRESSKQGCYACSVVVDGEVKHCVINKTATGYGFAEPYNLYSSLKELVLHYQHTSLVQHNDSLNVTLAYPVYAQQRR
(In ADP-Glo the light output rises with the ADP produced.)

For series [2], the system named is KPL4 cells (PI3Kα mutant H1047R). The series can be described thus: In vitro cell viability assay (Cell Titer-Glo), KPL4. For orientation: ATP-based viability assays read luminescence as a measure of living cells.
Experimental: (§6) Cells were seeded (1,500 per well) in 384-well plates for 16 h. On day 2, nine serial 1:3 compound dilutions were made in DMSO in a 96-well plate. The compounds were then further diluted into growth media using a Rapidplate robot (Zymark Corp.). The diluted compounds were then added to quadruplicate wells in the 384-well cell plates and incubated at 37° C. and 5% CO2. After 4 d, relative numbers of viable cells were measured by luminescence using Cell Titer-Glo (Promega) according to the manufacturer's instructions and read on a Wallac Multilabel Reader (Perkin-Elmer). EC50 values were calculated using Prism 6.0 software (GraphPad).
Series [3] relates to HCC1954 cells (PI3Kα mutant H1047R). Kind of series: In vitro cell viability assay (Cell Titer-Glo), HCC1954.
Experimental: as §6
Another series has as its target PI3Kβ (Homo sapiens, UniProt P42338). Kind of series: PI3K binding assay (lipid kinase reaction, ADP-Glo), PI3K beta. Format: biochemical. The settings on record: Table 2A; first value of cell (ADP-Glo, Example 901). The method, then:
as §1, §2

The next series has as its system P-PRAS40 SW48(E545K). The series can be described thus: Inhibition of P-PRAS40 in SW48 isogenic cells, PI3Kα mutant E545K. It is filed as cell-based. The settings on record: Table 3A; for EC50: Homo sapiens, SW48, 24 hours of compound treatment, geometric mean, read-out: P-PRAS40 SW48(E545K) EC50; for Fold Selectivity for SW48(E545K) vs. SW48(parental): EC50 potency ratio, p value (Student t-Test) given. On the procedure:
(§3) All statistics were performed using KaleidaGraph Software (version 4.1.3). A Student t-Test was performed using unpaired data with equal variance to compare activity against mutant cells and wild-type cells. P<0.05 is considered to be significant.
(§4) The following assays are intended for determining the cellular potency and mutant selectivity of small molecule PI3Kα inhibitors. […] Mutant selectivity of PI3Kα inhibitors is determined by EC50 potency ratios in the WT vs. E545K cell lines and WT vs. H1047R cell lines.
(§5) The three cell lines (WT, E545K, and H1047R) are plated and assayed in parallel. The following day, test compounds are serially diluted in dimethyl sulfoxide (DMSO) and added to cells (final DMSO concentration 0.5%). […] Cell lysates are added to assay plates pre-coated with antibodies against phosphorylated PRAS40. Phosphorylated PRAS40 in samples are allowed to bind to the capture antibodies overnight at 4° C. The detection antibody (anti-total PRAS40, labeled with an electrochemiluminescent SULFO-TAG) is added to the bound lysate and incubated for 1 hour at room temperature. The MSD Read Buffer is added such that when a voltage is applied to the plate electrodes, the labels bound to the electrode surface emit light. The MSD Sector Instrument measures the intensity of the light, and quantitatively measures the amount of phosphor-PRAS40 in the sample. Percent inhibition of PRAS40 phosphorylation by varying concentrations of test compounds is calculated relative to untreated controls. EC50 values are calculated using the 4 parameter logistic nonlinear regression dose-response model.

For series [4], the system named is MCF7 cells (PI3Kα mutant E545K). The series can be described thus: In vitro cell viability assay (Cell Titer-Glo), MCF7.
Experimental: as §6
For another series, the system named is P-PRAS40 SW48(H1047R). Kind of series: Inhibition of P-PRAS40 in SW48 isogenic cells, PI3Kα mutant H1047R. Format: cell-based. The settings on record: Table 3A; for EC50: Homo sapiens, SW48, 24 hours of compound treatment, geometric mean, read-out: P-PRAS40 SW48(H1047R) EC50; for Fold Selectivity for SW48(H1047R) vs. SW48(parental): EC50 potency ratio, p value (Student t-Test) given. On the procedure:
as §3, §4, §5

Another series relates to P-PRAS40 SW48(parental). Kind of series: Inhibition of P-PRAS40 in SW48 isogenic cells, PI3Kα wild-type (parental). To be noted: Homo sapiens, SW48, 24 h, read-out: P-PRAS40 SW48(parental) EC50 (nM).
The target of the next series is PI3Kγ (Homo sapiens, UniProt P48736). The series can be described thus: PI3K binding assay (lipid kinase reaction, ADP-Glo), PI3K gamma. The settings on record: Table 2A; first value of cell (ADP-Glo, Example 901). It is filed as biochemical. On the procedure:
as §1, §2

[5] abbreviates: Table 2A, first value of cell (ADP-Glo, Example 901).
Setting [6] is: Table 2A, selectivity ratio (fold).
Setting [7] is: KPL4, 96 h, read-out: KPL4 antiproliferative EC50 (μM).
Setting [8] is: Homo sapiens, HCC1954, 96 h, read-out: HCC1954 antiproliferative EC50 (μM).
The mark [9] stands for this setting: Homo sapiens, MCF7, 96 h, read-out: MCF7 antiproliferative EC50 (μM).

Like-named read-outs stand apart in the source and are kept apart here.

The source of these data is patent publication US9643980B2, “Benzoxazepin oxazolidinone compounds and methods of use” (Genentech, Inc., priority 2015, dated 2017).

As a reminder, the Ki is the dissociation constant of the complex between target and ligand, obtained from inhibition or displacement. Broadly, the EC50 is the concentration needed to bring the measured effect to its halfway point.

Sequence of PI3Kγ (P48736 whole entry): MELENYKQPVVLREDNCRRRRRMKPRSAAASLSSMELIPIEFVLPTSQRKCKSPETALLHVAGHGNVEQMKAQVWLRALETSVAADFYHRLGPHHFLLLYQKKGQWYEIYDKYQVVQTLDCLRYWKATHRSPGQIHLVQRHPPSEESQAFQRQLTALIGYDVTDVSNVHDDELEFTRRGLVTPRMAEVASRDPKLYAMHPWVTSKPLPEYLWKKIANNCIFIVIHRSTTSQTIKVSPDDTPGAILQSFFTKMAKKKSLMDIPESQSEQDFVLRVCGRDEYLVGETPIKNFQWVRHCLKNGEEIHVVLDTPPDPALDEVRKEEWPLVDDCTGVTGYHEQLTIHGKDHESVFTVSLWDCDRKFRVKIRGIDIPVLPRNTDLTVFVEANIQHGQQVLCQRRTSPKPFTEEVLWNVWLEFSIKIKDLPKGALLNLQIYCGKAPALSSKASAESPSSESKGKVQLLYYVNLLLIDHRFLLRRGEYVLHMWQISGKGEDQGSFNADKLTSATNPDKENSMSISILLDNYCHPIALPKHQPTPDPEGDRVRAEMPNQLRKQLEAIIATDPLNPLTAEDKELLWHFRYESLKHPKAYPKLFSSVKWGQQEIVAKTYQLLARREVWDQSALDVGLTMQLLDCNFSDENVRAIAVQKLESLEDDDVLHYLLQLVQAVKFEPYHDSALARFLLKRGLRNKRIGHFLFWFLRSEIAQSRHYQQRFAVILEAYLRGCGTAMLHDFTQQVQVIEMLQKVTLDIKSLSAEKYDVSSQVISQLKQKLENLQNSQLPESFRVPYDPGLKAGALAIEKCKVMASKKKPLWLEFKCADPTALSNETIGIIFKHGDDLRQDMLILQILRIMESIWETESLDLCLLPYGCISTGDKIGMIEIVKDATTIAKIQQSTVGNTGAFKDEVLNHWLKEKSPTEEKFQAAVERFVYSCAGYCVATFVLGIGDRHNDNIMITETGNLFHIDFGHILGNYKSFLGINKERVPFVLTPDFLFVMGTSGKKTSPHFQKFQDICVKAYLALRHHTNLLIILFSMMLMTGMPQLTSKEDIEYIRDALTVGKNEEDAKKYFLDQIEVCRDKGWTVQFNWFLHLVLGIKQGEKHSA
Sequence of PI3Kδ (O00329 whole entry, canonical isoform): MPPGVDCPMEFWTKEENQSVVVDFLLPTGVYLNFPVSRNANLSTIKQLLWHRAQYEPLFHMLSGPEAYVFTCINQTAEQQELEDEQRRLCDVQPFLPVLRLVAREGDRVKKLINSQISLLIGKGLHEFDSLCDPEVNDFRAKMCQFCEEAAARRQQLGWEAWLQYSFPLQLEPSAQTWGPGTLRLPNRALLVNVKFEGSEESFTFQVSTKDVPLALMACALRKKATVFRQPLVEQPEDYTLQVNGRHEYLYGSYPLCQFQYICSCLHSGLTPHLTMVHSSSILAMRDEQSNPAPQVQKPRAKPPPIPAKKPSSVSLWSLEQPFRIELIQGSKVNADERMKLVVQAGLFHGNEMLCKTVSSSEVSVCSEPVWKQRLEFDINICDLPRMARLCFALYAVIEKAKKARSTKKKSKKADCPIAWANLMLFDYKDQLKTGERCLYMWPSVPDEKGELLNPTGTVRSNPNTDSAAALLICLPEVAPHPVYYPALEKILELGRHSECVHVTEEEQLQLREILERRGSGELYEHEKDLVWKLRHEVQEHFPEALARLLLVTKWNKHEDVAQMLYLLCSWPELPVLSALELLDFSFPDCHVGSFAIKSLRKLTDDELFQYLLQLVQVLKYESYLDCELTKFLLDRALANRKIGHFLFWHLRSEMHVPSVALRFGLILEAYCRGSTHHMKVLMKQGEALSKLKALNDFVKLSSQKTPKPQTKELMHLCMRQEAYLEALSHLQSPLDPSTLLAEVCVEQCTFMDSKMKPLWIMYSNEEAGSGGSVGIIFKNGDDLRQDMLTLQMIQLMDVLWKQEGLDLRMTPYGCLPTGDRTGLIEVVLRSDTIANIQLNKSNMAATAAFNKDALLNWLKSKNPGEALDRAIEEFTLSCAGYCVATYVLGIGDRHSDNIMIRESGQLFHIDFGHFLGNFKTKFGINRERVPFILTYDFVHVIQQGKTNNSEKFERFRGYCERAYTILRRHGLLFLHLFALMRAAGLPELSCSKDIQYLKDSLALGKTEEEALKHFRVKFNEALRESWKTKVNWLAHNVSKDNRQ
Sequence of PI3Kδ (P27986 whole entry partner, canonical isoform): as the sequence (P27986 whole entry partner) above
Sequence of PI3Kβ (P42338 whole entry): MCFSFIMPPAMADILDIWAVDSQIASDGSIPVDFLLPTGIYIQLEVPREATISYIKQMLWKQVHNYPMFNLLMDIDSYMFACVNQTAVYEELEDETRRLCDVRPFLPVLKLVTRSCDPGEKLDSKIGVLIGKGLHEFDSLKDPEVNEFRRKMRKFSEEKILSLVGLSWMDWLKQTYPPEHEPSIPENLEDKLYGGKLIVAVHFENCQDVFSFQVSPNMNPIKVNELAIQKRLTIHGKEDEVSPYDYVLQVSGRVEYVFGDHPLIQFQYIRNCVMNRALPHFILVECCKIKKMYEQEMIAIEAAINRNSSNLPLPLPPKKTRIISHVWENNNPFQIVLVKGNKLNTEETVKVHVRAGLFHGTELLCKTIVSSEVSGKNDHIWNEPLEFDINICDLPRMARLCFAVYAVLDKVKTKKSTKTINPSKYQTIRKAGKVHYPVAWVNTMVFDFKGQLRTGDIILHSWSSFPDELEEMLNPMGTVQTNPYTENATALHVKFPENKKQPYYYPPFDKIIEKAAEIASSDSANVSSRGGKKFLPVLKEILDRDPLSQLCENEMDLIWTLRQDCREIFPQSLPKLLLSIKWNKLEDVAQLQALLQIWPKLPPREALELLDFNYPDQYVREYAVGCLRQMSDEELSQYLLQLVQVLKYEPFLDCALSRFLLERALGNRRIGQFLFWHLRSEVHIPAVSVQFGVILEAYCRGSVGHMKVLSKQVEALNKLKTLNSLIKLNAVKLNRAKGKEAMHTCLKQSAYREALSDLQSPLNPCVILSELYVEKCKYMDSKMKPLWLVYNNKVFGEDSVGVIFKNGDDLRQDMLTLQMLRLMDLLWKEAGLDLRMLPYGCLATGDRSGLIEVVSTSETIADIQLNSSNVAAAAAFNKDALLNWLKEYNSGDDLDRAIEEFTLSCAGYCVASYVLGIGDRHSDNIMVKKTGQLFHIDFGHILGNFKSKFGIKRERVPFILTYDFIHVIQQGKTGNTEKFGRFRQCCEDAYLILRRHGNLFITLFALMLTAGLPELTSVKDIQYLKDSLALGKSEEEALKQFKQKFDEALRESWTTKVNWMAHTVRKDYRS
Sequence of PI3Kβ (P27986 whole entry partner): as the sequence (P27986 whole entry partner) above
Experimental for P-PRAS40 SW48(parental): The three cell lines (WT, E545K, and H1047R) are plated and assayed in parallel. The following day, test compounds are serially diluted in dimethyl sulfoxide (DMSO) and added to cells (final DMSO concentration 0.5%). Cells are then incubated for 24 hours at 37° C. and 5% CO2. […] Cell lysates are added to assay plates pre-coated with antibodies against phosphorylated PRAS40. Phosphorylated PRAS40 in samples are allowed to bind to the capture antibodies overnight at 4° C. The detection antibody (anti-total PRAS40, labeled with an electrochemiluminescent SULFO-TAG) is added to the bound lysate and incubated for 1 hour at room temperature. The MSD Read Buffer is added such that when a voltage is applied to the plate electrodes, the labels bound to the electrode surface emit light. The MSD Sector Instrument measures the intensity of the light, and quantitatively measures the amount of phosphor-PRAS40 in the sample. Percent inhibition of PRAS40 phosphorylation by varying concentrations of test compounds is calculated relative to untreated controls. EC50 values are calculated using the 4 parameter logistic nonlinear regression dose-response model.

Regarding `NC(=O)[C@@H]1CCCN1c1ccc2c(c1)OCCn1cc(N3C(=O)OC[C@H]3C(F)(F)F)nc1-2` [Compound 103, (S)-1-(2-((S)-2-Oxo-4-(trifluoromethyl)oxazolidin-3-yl)-5,6-dihydrobenzo[f]imidazo[1,2-d][1,4]oxazepin-9-yl)pyrrolidine-2-carboxamide], the Ki came to 2.28 nM at PI3Kδ (setting [5]), 0.155 nM on PI3Kα (Table 2A), 108 nM at PI3Kβ and 45 nM at PI3Kγ. Moreover, the “Tolerability / treatment-related body weight loss” value in series [1] (all doses) was “well tolerated, with no treatment-related body weight loss observed”. Besides, in series [1] (FIGS. 2A and 2B), the “Inhibition of KPL4 tumor growth in vivo” value was “strongly inhibit the growth of KPL4 tumors in vivo in a dose-dependent manner”. In addition, the “Selectivity for PI3Kα vs. PI3K-β” value on PI3Kα (setting [6]) is 698. In addition, the “Selectivity for PI3Kα vs. PI3Kγ” value on PI3Kα (setting [6]) was found to be 290. On PI3Kα (setting [6]), the “Selectivity for PI3Kα vs. PI3Kδ” value worked out at 15. Moreover, the 50% effective concentration (EC50) in series [2] (setting [7]) turned out to be 0.02 µM; in series [3] (setting [8]), 0.15 µM; in the series with P-PRAS40 SW48(E545K) it was 6.9 nM; in series [4] (setting [9]), 0.38 µM; with P-PRAS40 SW48(H1047R) it was 7.1 nM; in the series on P-PRAS40 SW48(parental), 18.7 nM. In addition, the “Fold Selectivity for SW48(E545K) vs. SW48(parental)” value in the series on P-PRAS40 SW48(E545K) is listed as 2.7 (p = 0.002). The “Fold Selectivity for SW48(H1047R) vs. SW48(parental)” value with P-PRAS40 SW48(H1047R) is on record as 2.6 (p = 0.002).

Regarding `CS(=O)(=O)N1CCN(Cc2cc3nc(-c4cccc5[nH]ncc45)nc(N4CCOCC4)c3s2)CC1` [pictilisib, 4-(2-(1H-indazol-4-yl)-6-((4-(methylsulfonyl)piperazin-1-yl)methyl)thieno[3,2-d]pyrimidin-4-yl)morpholine, reference compound], the EC50 in series [2] (read-out: KPL4 antiproliferative EC50, 4 d incubation, Cell Titer-Glo) is 0.21 µM; in [3] (read-out: HCC1954 antiproliferative EC50, 4 d incubation, Cell Titer-Glo), 0.75 µM; in series [4] (read-out: MCF7 antiproliferative EC50, 4 d incubation, Cell Titer-Glo) it was 0.12 µM.

Take `C[C@H](Oc1ccc2c(c1)OCCn1cc(N3C(=O)OC[C@H]3C(F)(F)F)nc1-2)C(N)=O` [Compound 105, (S)-2-((2-((S)-2-Oxo-4-(trifluoromethyl)oxazolidin-3-yl)-5,6-dihydrobenzo[f]imidazo[1,2-d][1,4]oxazepin-9-yl)oxy)propanamide]: the Ki was determined as 42.2 nM on PI3Kδ (setting [5]), 2.75 nM at PI3Kα (Table 2A), 661 nM on PI3Kβ and 255 nM on PI3Kγ. The “Selectivity for PI3Kα vs. PI3K-β” value on PI3Kα is on record as 241. Further, the “Selectivity for PI3Kα vs. PI3Kγ” value on PI3Kα is 93. For the same compound, at PI3Kα, the “Selectivity for PI3Kα vs. PI3Kδ” value is given as 15. Also, the 50% effective concentration (EC50) in [2] (setting [7]) came out at 0.008 µM; in series [3] (setting [8]), 0.005 µM; in the series with P-PRAS40 SW48(E545K) it was 62.9 nM; in [4] (setting [9]) it was 0.05 µM; with P-PRAS40 SW48(H1047R) it was 53.6 nM; in the series with P-PRAS40 SW48(parental), 199 nM. Also, the “Fold Selectivity for SW48(E545K) vs. SW48(parental)” value with P-PRAS40 SW48(E545K) is on record as 3.2 (p = 0.012). For the same compound, in the series with P-PRAS40 SW48(H1047R), the “Fold Selectivity for SW48(H1047R) vs. SW48(parental)” value is 3.7 (p = 0.008).

For the compound `NC(=O)[C@@H]1CCCN1c1ccc2c(c1)OCCn1cc(N3C(=O)OC[C@H]3C(F)F)nc1-2` [Compound 106, (S)-1-(2-((S)-4-(Difluoromethyl)-2-oxooxazolidin-3-yl)-5,6-dihydrobenzo[f]imidazo[1,2-d][1,4]oxazepin-9-yl)pyrrolidine-2-carboxamide], the Ki was determined as 1.82 nM on PI3Kδ (setting [5]), 0.053 nM on PI3Kα (Table 2A), 53.8 nM at PI3Kβ and 20.4 nM on PI3Kγ. In addition, the “Selectivity for PI3Kα vs. PI3K-β” value at PI3Kα (setting [6]) amounted to 1008. Moreover, the “Selectivity for PI3Kα vs. PI3Kγ” value at PI3Kα (setting [6]) amounted to 384. Besides, on PI3Kα (setting [6]), the “Selectivity for PI3Kα vs. PI3Kδ” value was 34. The EC50 in the series on P-PRAS40 SW48(E545K) turned out to be 2.7 nM; in the series on P-PRAS40 SW48(H1047R) it was 2.9 nM; with P-PRAS40 SW48(parental) it was 5.5 nM. Moreover, in the series with P-PRAS40 SW48(E545K), the “Fold Selectivity for SW48(E545K) vs. SW48(parental)” value was 2.1 (p < 0.001). The “Fold Selectivity for SW48(H1047R) vs. SW48(parental)” value in the series on P-PRAS40 SW48(H1047R) is recorded as 1.9 (p < 0.001).

On to `CC(C)n1ncnc1-c1cn2c(n1)-c1ccc(O[C@@H](C)C(N)=O)cc1OCC2` [Compound 436, reference compound], for which the inhibition constant Ki on PI3Kδ (Table 2B comparator compounds, first value of cell (ADP-Glo)) worked out at 7.72 nM. In series [2] (setting [7]), the concentration giving a half-maximal response (EC50) is 0.05 µM.
